Results from ChEMBL document CHEMBL5260810, “Inhibition of bromodomain-containing protein 9 for the prevention of epigenetically-defined drug resistance” (Bioorg Med Chem Lett, 2017).

Key:
HCT-116 = test: Cytotoxicity against human HCT-116 cells measured after 8 days; assay type: functional, cell-based; settings: HCT-116, 192 h
[1] = molecular target: Sodium-dependent noradrenaline transporter (Homo sapiens) (UniProt P23975); test: Displacement of [3H]nisoxetine from recombinant human norepinephrine transporter at 10 uM after 120 mins by scintillation counting analysis relative to control
CAL-120 = test: Cytotoxicity against human CAL-120 cells measured after 8 days; assay type: functional, cell-based; settings: CAL-120, 192 h
UMC-11 = test: Cytotoxicity against human UMC-11 cells measured after 8 days; assay type: functional, cell-based; settings: UMC-11, 192 h
EPLC-272H = test: Cytotoxicity against human EPLC-272H cells measured after 8 days; assay type: functional, cell-based; settings: 192 h
OCI-AML-5 = test: Cytotoxicity against human OCI-AML5 cells measured after 8 days; assay type: functional, cell-based; settings: OCI-AML-5, 192 h
[2] = Cytotoxicity against human HT115 cells measured after 8 days; assay type: functional, cell-based; settings: HT115, 192 h
NCI-H146 = test: Cytotoxicity against human NCI-H146 cells measured after 8 days; assay type: functional, cell-based; settings: NCI-H146, 192 h
HCC1806 = test: Cytotoxicity against human HCC1806 cells measured after 8 days; assay type: functional, cell-based; settings: HCC1806, 192 h
[3] = molecular target: 5-hydroxytryptamine receptor 4 (Homo sapiens) (UniProt Q13639); test: Inhibition of human 5HT4e at 10 uM relative to control
MDA-MB-468 = test: Cytotoxicity against human MDA-MB-468 cells measured after 8 days; assay type: functional, cell-based; settings: MDA-MB-468, 192 h
[4] = molecular target: Sodium-dependent dopamine transporter (Homo sapiens) (UniProt Q01959); test: Displacement of […] from recombinant human Dopamine transporter at 10 uM after 120 mins by scintillation counting analysis relative to control
[5] = molecular target: 5-hydroxytryptamine receptor 2B (Homo sapiens) (UniProt P41595); test: Displacement of [125I]+/-DOI from human recombinant 5-HT2B receptor at 10 uM after 60 mins by scintillation counting analysis relative to control
NCI-H2009 = test: Cytotoxicity against human NCI-H2009 cells measured after 8 days; assay type: functional, cell-based; settings: NCI-H2009, 192 h
NCI-H2405 = test: Cytotoxicity against human NCI-H2405 cells measured after 8 days; assay type: functional, cell-based; settings: NCI-H2405, 192 h
[6] = Cytotoxicity against human NCI-H2722 cells measured after 8 days; assay type: functional, cell-based; settings: NCI-H2722, 192 h
[7] = molecular target: T1, ATPase family AAA domain-containing protein 2B (Homo sapiens, UniProt Q9ULI0); test: Binding affinity to human partial length ATAD2B (Q955 to R1082 residues) expressed in bacterial expression system by BROMOscan assay
T1 sequence (Q9ULI0 whole entry): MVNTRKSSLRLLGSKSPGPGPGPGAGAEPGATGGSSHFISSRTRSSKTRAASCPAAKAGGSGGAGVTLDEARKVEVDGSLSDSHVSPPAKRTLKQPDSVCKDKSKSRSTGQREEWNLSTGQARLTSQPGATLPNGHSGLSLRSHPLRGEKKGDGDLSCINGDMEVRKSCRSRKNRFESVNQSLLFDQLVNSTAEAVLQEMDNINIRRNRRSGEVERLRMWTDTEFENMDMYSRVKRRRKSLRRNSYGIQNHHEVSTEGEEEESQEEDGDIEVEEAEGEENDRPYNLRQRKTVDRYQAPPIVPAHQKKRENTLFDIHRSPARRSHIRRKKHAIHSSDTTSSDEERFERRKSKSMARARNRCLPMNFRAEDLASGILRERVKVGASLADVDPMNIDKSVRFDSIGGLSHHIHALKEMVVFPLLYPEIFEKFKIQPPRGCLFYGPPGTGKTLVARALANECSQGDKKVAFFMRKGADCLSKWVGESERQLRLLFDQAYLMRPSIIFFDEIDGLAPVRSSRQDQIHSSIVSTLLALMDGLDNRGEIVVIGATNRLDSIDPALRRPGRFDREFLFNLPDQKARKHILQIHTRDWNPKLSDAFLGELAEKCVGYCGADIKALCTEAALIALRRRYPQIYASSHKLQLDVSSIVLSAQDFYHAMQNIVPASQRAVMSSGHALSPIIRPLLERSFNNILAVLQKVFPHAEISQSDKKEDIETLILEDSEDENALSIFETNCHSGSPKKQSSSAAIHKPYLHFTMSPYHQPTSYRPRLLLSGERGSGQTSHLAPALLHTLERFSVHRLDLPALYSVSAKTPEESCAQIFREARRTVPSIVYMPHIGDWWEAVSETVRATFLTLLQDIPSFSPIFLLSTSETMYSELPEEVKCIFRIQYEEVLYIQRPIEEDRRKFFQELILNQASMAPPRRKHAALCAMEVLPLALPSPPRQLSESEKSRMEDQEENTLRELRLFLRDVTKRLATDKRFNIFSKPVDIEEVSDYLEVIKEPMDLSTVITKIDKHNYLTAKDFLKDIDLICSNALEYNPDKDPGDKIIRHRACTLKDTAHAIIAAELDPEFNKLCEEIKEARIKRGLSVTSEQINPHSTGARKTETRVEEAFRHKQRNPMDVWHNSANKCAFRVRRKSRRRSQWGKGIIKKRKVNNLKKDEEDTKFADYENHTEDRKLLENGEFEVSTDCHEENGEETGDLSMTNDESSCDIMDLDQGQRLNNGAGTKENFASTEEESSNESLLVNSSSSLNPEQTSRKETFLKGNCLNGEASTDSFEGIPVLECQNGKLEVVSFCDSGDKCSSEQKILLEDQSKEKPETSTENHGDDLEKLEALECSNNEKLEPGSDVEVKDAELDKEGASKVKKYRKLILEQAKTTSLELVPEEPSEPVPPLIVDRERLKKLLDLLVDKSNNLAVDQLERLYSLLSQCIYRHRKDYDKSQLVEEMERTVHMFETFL

[8] = molecular target: L-type calcium channel, verapamil binding site (Rattus norvegicus, UniProt P22002+P27732+Q02485); test: Displacement of [3H]D 888 from rat brain L-type calcium channel verapamil binding site at 10 uM after 120 mins by scintillation counting analysis relative to control; settings: rat brain L-type calcium channel preparation, probe [3H]D 888, read-out: Activity
[9] = molecular target: T2, Adenosine receptor A1 (Homo sapiens) (UniProt P30542); test: Displacement of [3H]-DPCPX from human recombinant adenosine A1 receptor at 10 uM after 60 mins by scintillation counting analysis relative to control
T2 sequence (whole entry): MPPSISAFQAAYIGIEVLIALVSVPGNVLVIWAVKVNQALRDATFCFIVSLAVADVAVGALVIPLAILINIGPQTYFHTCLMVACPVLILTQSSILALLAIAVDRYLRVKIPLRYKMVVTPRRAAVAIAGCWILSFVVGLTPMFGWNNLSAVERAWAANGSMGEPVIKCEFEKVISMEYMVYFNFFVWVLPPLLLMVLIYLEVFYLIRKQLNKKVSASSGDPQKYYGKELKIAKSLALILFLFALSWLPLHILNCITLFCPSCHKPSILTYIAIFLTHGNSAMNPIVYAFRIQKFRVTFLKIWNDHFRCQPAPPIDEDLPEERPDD

5-hydroxytryptamine receptor 4 (Homo sapiens), sequence (Q13639 whole entry): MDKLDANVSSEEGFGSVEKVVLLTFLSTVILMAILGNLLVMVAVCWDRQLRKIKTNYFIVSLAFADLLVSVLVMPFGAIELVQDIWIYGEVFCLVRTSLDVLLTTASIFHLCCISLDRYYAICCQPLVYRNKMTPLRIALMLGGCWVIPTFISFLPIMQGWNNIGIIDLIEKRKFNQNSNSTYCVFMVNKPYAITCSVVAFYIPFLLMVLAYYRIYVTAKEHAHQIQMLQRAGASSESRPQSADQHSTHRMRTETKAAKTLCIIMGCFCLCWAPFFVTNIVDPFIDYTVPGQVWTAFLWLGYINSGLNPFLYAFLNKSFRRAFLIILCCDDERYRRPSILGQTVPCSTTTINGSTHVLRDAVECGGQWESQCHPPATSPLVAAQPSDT
Sodium-dependent dopamine transporter (Homo sapiens), sequence (Q01959 whole entry): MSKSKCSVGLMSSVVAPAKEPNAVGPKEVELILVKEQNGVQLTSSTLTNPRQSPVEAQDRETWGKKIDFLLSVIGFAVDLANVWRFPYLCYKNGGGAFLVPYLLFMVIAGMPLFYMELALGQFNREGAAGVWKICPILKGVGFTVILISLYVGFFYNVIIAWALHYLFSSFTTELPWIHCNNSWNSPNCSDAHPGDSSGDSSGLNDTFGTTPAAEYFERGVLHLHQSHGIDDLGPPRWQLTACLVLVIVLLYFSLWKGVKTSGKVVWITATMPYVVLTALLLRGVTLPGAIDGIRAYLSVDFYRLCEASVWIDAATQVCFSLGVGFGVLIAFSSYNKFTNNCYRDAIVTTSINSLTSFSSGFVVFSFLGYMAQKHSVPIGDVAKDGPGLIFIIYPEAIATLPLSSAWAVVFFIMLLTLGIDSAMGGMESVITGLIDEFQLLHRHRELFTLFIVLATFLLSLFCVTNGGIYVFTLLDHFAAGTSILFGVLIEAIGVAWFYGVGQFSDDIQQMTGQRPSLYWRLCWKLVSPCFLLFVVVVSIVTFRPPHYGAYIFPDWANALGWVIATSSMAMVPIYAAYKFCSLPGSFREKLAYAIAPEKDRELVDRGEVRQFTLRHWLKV
5-hydroxytryptamine receptor 2B (Homo sapiens), sequence (P41595 whole entry): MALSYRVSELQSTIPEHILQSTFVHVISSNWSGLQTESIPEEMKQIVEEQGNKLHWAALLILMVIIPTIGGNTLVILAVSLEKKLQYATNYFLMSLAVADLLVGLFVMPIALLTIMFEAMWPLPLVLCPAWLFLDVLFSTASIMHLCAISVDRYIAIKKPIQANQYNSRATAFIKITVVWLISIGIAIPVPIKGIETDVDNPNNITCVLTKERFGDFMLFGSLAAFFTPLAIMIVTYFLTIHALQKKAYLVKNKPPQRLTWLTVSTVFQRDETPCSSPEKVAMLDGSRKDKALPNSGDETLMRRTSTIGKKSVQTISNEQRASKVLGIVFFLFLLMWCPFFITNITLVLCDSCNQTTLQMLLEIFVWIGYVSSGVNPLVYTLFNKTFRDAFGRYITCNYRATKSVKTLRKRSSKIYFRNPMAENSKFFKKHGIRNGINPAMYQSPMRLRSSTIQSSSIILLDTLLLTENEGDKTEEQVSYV
Sodium-dependent noradrenaline transporter (Homo sapiens), sequence (P23975 whole entry): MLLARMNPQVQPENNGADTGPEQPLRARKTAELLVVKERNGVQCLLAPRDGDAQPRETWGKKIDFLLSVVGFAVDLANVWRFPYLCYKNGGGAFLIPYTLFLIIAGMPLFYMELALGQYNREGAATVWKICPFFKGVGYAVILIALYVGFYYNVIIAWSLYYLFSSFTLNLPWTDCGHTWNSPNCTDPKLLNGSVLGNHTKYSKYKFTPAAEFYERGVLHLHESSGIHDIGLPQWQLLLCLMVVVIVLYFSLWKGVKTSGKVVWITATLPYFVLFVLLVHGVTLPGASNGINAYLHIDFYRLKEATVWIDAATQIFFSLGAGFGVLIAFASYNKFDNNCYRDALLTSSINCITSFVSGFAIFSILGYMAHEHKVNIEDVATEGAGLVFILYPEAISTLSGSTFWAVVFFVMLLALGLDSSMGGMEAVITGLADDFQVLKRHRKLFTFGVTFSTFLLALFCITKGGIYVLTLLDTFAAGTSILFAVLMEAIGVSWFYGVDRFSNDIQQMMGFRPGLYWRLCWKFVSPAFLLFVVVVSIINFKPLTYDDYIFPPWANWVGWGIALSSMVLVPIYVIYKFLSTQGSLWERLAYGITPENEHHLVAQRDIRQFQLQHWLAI

`C/C=C/Cn1cc(-c2ccc(C(=O)N3CCOCC3)cc2)c2cc[nH]c2c1=O` showed an IC50 (HCT-116) of 20 µM, an Activity [1] of -3% and an IC50 (CAL-120) of 20 µM. It also gave an IC50 (UMC-11) of 20 µM, an IC50 (EPLC-272H) of 20 µM and an IC50 (OCI-AML-5) of 20 µM. It also gave an IC50 [2] of 20 µM, an IC50 (NCI-H146) of 20 µM and an IC50 (HCC1806) of 20 µM. The inhibition [3] was 2%, the IC50 (MDA-MB-468) was 20 µM and the Activity [4] was 15%. For the same compound, the Activity [5] was 22%, the IC50 (NCI-H2009) was 20 µM and the IC50 (NCI-H2405) was 20 µM. It also gave an IC50 [6] of 20 µM, a Kd [7] of over 10 µM and an inhibition at 2 h, 10 µM [8] of 7%. For the same compound, the Activity [9] was 10%.

In the case of `C/C=C/Cn1cc(-c2cc(OC)c(C(C)(C)O)cc2OC)c2cc(C)[nH]c2c1=O`, the Kd [7] is reported as over 10 µM.

Work on `C/C=C/Cn1cc(-c2cc(OC)c(C(=O)N3CCOCC3)cc2OC)c2cc(C)[nH]c2c1=O` yielded an IC50 (HCT-116) of 2 µM, an Activity [1] of 0% and an IC50 (CAL-120) of 2 µM. The IC50 (UMC-11) was 2 µM, the IC50 (EPLC-272H) was 2 µM and the IC50 (OCI-AML-5) was 2 µM. For the same compound, the IC50 [2] was 2 µM, the IC50 (NCI-H146) was 2 µM and the IC50 (HCC1806) was 2 µM. For the same compound, the inhibition [3] was -8%, the IC50 (MDA-MB-468) was 2 µM and the Activity [4] was 11%. For the same compound, the Activity [5] was 6%, the IC50 (NCI-H2009) was 2 µM and the IC50 (NCI-H2405) was 2 µM. For the same compound, the IC50 [6] was 2 µM, the Kd [7] was over 10 µM and the inhibition at 2 h, 10 µM [8] was 3%. The Activity [9] was -4%.

With `C/C=C/Cn1cc(-c2ccc(C(C)(C)O)cc2OC)c2cc[nH]c2c1=O` the IC50 (HCT-116) was 20 µM, the Activity [1] was -6% and the IC50 (CAL-120) was 20 µM. The IC50 (UMC-11) was 20 µM, the IC50 (EPLC-272H) was 20 µM and the IC50 (OCI-AML-5) was 20 µM. The IC50 [2] was 20 µM, the IC50 (NCI-H146) was 20 µM and the IC50 (HCC1806) was 20 µM. It also gave an inhibition [3] of -1%, an IC50 (MDA-MB-468) of 20 µM and an Activity [4] of 15%. For the same compound, the Activity [5] was -2%, the IC50 (NCI-H2009) was 20 µM and the IC50 (NCI-H2405) was 20 µM. The IC50 [6] was 20 µM, the Kd [7] was over 10 µM and the inhibition at 2 h, 10 µM [8] was -3%. For the same compound, the Activity [9] was 8%.
